For series [1], the target named is T1, DPPIV (Homo sapiens, UniProt P27487). Briefly: In vitro plasma stability of GLP1CM peptides (kinetic test method). Conditions: 10% human plasma; for remaining at 9 h, 1 μM: human, pH 7.8; for DT80: time needed to degrade active GLP-1 to 80% of the 0 h value, 1 μM peptide.
Target sequence in this assay (P27487 39-766 limits assumed): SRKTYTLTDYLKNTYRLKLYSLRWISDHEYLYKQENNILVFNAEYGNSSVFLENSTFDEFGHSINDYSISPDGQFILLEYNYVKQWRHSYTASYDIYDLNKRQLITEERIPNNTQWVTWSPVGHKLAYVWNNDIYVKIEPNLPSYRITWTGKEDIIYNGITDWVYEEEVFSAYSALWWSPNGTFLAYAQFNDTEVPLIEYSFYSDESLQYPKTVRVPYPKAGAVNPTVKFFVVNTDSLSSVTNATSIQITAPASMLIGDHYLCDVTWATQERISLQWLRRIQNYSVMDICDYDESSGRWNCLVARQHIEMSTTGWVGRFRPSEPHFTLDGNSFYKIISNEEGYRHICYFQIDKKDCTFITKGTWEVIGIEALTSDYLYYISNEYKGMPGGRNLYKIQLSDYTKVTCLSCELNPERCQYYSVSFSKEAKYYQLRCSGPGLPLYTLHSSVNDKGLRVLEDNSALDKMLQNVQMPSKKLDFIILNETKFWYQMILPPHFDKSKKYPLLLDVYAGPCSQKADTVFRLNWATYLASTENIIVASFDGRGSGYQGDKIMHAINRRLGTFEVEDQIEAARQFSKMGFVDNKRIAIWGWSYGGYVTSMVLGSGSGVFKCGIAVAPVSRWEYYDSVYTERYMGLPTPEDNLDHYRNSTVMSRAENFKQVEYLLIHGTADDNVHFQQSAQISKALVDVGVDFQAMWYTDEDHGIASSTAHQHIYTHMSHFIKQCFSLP
Text: (§1) Results are from triplicates in at least two independent experiments.
The target of series [2] is T1, DPPIV.
Target sequence in this assay (P27487 39-766 limits assumed): as above
Text: as §1
The target of series [3] is T1, DPPIV. Briefly: in vitro. Conditions: plasma, pH 7.8.
Target sequence in this assay (P27487 39-766 limits assumed): as above
Text: as §1
The target of series [4] is T1, DPPIV. Nature of the series: In vitro plasma stability of GLP-1 peptides secreted from human cells. It is filed as in vitro ADME. More on the design: human lymphocyte enriched plasma containing dipeptidylpeptidase activity; from tissue; host or cells: human lymphocyte enriched plasma. Conditions: human lymphocyte enriched plasma, 37° C., 3 or 4 hours. The text has this: HEK293 and hTERT-MSC cells were transiently transfected with constructs, encoding the heterologous stromelysin signal sequence, which is linked to GLP-1 variants encoding the following peptides: […]
Target sequence in this assay (P27487 whole entry): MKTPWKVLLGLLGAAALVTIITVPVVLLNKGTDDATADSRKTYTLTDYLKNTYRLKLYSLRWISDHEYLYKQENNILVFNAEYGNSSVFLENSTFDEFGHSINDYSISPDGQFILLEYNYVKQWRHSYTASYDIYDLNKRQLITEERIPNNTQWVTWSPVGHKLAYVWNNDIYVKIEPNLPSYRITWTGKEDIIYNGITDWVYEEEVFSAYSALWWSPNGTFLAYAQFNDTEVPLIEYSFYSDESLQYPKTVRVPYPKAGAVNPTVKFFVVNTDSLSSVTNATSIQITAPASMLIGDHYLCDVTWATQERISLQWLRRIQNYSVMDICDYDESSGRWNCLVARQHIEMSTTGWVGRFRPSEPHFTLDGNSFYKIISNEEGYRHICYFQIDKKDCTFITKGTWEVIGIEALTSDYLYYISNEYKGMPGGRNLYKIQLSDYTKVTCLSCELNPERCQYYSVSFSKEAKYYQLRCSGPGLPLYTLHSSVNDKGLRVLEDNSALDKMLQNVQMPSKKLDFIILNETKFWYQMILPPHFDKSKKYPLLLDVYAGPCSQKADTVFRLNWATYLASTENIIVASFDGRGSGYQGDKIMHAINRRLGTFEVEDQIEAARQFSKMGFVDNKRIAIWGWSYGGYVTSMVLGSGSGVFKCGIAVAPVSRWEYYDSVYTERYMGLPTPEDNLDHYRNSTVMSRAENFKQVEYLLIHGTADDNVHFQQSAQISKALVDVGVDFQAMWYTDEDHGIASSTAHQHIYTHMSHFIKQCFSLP

Series [5] has as its system type II diabetic mice (C57BL/Ks-Lepr^db/db). Briefly: In vivo bioactivity, blood glucose in type II diabetic mice. As to conditions: 5 μg peptide s.c. twice a day, day 2, 4, 7, 10, after overnight fast. As to the method:
11-week-old type II diabetic mice (C57BL/Ks-Lepr^db/db, Harlan) were treated with 5 μg peptide by subcutaneous injection twice a day at 9 a.m. and 5 p.m. (n=5 per group). Blood glucose was measured before (day 0) and after treatment with GLP^CM peptides (Day 2, 4, 7, 10) at 10 a.m. after an overnight fastening period. Data were presented in relation to blood glucose levels measured at day 0.

Series [6] deals with C57BL/KsJ@Rj-db (db/db) mice. Nature of the series: Long-term treatment of db/db mice. It is filed as in vivo.
Experimental: Blood glucose was measured from a tail bleed after a 12-hour overnight fast 18 hours after s.c. injection of the test substances. […] The serum was analysed for insulin with the Insulin Mouse Ultrasensitive ELISA (Cat.#EIA-3440, DRG).
In another series the test system is BALB/c mice. Briefly: In vivo study, immunogenicity. As to conditions: 5 repeated injections, 70 μg peptide/dose, i.v., over 22 d.
The test system of series [7] is diabetic C57BL/KsJ@Rj-db (db/db) mice. Nature of the series: Dose-efficacy study in diabetic mice. It is filed as in vivo. As to the method:
A sixth group was treated with saline only. 7 animals were treated per group. Blood glucose was determined from tail bleeds directly before, 1 hour and 4 hours after injection. […] For every test substance a graph was prepared with the percentage difference of the blood glucose in relation to the start value for the different concentrations. […] Both models are sigmoidal fit models suitable for dose response evaluation.

The nature of series [8]: In vitro human plasma stability of GLP-1CM peptides. Conditions: 20 ng/ml, 37° C., 3 hours, GLP-1 (Active) ELISA. A general note: In an ELISA, binding on a coated surface is turned into a signal by an enzyme label.
Text: Dipeptidylpeptidase activity of the plasma was inhibited by an DPP-IV inhibitor (#DPP4, Biotrend).

Where two headings read alike, the source gives them in different places. Ends that are not written are not given here.

Experimental for BALB/c mice: The trial was done in BALB/c mice receiving 5 repeated injections (70 μg peptide/dose, i.v.) over 22 d (n=5).
Spleens of the treated and control mice were explanted, T-cells isolated and stimulated with increasing amounts of antigene. Proliferative recall response is measured.

Take `CC[C@H](C)[C@H](NC(=O)[C@H](Cc1ccccc1)NC(=O)[C@H](CCC(=O)O)NC(=O)[C@H](CCCCN)NC(=O)[C@H](C)NC(=O)[C@H](C)NC(=O)[C@H](CCC(N)=O)NC(=O)CNC(=O)[C@H](CCC(=O)O)NC(=O)[C@H](CC(C)C)NC(=O)[C@H](Cc1ccc(O)cc1)NC(=O)[C@H](CO)NC(=O)[C@H](CO)NC(=O)[C@@H](NC(=O)[C@H](CC(=O)O)NC(=O)[C@H](CO)NC(=O)[C@@H](NC(=O)[C@H](Cc1ccccc1)NC(=O)[C@@H](NC(=O)CNC(=O)[C@H](CCC(=O)O)NC(=O)[C@H](C)NC(=O)[C@@H](N)Cc1c[nH]cn1)[C@@H](C)O)[C@@H](C)O)C(C)C)C(=O)N[C@@H](C)C(=O)N[C@@H](Cc1c[nH]c2ccccc12)C(=O)N[C@@H](CC(C)C)C(=O)N[C@H](C(=O)N[C@@H](CCCCN)C(=O)NCC(=O)N[C@@H](CCCNC(=N)N)C(=O)NCC(=O)N[C@@H](CCCNC(=N)N)C(=O)N[C@@H](CCCNC(=N)N)C(=O)N[C@@H](CC(=O)O)C(=O)N[C@@H](Cc1ccccc1)C(=O)N1CCC[C@H]1C(=O)O)C(C)C` [CM3-ANA06, reference compound]: the amount remaining (usually the share of the starting amount still present when the sample was taken) at 9 h, 1 μM at DPPIV [1] came to 11%. Moreover, the DT80 at DPPIV [1] (37° C.) was 0.9 h.
Consider `CC[C@H](C)[C@H](NC(=O)[C@H](Cc1ccccc1)NC(=O)[C@H](CCC(=O)O)NC(=O)[C@H](CCCCN)NC(=O)[C@H](C)NC(=O)[C@H](C)NC(=O)[C@H](CCC(N)=O)NC(=O)CNC(=O)[C@H](CCC(=O)O)NC(=O)[C@H](CC(C)C)NC(=O)[C@H](Cc1ccc(O)cc1)NC(=O)[C@H](CO)NC(=O)[C@H](CO)NC(=O)[C@@H](NC(=O)[C@H](CC(=O)O)NC(=O)[C@H](CO)NC(=O)[C@@H](NC(=O)[C@H](Cc1ccccc1)NC(=O)[C@@H](NC(=O)CNC(=O)[C@H](CCC(=O)O)NC(=O)[C@H](C)NC(=O)[C@@H](N)Cc1c[nH]cn1)[C@@H](C)O)[C@@H](C)O)C(C)C)C(=O)N[C@@H](C)C(=O)N[C@@H](Cc1c[nH]c2ccccc12)C(=O)N[C@@H](CC(C)C)C(=O)N[C@H](C(=O)N[C@@H](CCCCN)C(=O)NCC(=O)N[C@@H](CCCNC(=N)N)C(=O)NCC(=O)N[C@@H](CCCNC(=N)N)C(=O)N[C@@H](CCCNC(=N)N)C(=O)N[C@@H](CC(=O)O)C(=O)N[C@@H](Cc1ccccc1)C(=O)N1CCC[C@H]1C(=O)N[C@@H](CCC(=O)O)C(=O)N[C@@H](CCC(=O)O)C(=O)N[C@H](C(=O)N[C@@H](C)C(=O)O)C(C)C)C(C)C` [CM3-ANA07], for which the DT80 on DPPIV [2] turned out to be 2.0 h. On DPPIV [3], this molecule displayed a share remaining at 9 h, 1 μM of 37%.
In the case of GLP1(7-37)-IP2-GLP1(7-37) [compound 3], the “resistance to DPP-IV degradation” value with DPPIV [4] is “nearly fully stabilised to DPP-IV degradation in vitro”.
Still for that read-out and setting: under “GLP-1(7-37) [compound 1, reference compound]” stands “inactivated by DPP-IV in a similar way to synthetic GLP-1”.
For GLP-1(7-37)-IP2-RR-GLP1(7-37) [CM1], the “anti-hyperglycemia effect (blood glucose in relation to day 0)” value in series [5] was “Best results”; in [5] (listed as SEQ ID No.:6) it was “anti-hyperglycemia effect”. Moreover, the “fasted blood glucose level” value in [6] (12-hour overnight fast, 18 h after peptide injection) is recorded as “reduced”. In addition, the “non fasted blood glucose level compared to control” value in series [6] (1 h after s.c. peptide injection, 24 nmol/kg) was 55%. Besides, the food consumption result in series [6] (weekly, 122 day treatment period, compared to the control, p<0.001) was “significantly lower”. The toxicity result in the series on BALB/c mice is listed as “no toxicity”. Further, the “fall in plasma glucose @1 h” value in series [7] (1 hour after single s.c. injection of 1.1-3.0 nmol peptide, versus control) is reported as 50% ± 14%@1 h. In series [7] (4 hours after single s.c. injection of 1.1-3.0 nmol peptide, versus control), the “fall in plasma glucose @4 h” value is 0%@4 h. Further, the “ED50 (plasma glucose)” value in series [7] (single s.c. dose, percentage decrease of blood glucose at 1 h, sigmoidal fit) is 0.61 μg/mouse.
Regarding “HAEGTFTSDVSSYLEGQAAKEFIAWLVKGRGAADAAAAVAIAAALG [CM3-ANA04]”, the fraction remaining at 9 h, 1 μM at DPPIV [1] amounted to 65%. The DT80 at DPPIV [1] (37° C.) came out at 4.7 h.
“HAEGTFTSDVSSYLEGQAAKEFIAWLVKGRGAADFPEEVAIAEELG [CM3-ANA01]”: at DPPIV [2], the DT80 stood at 12.5 h and the “in vitro plasma stability, comparison” value is given as “higher plasma stability than CM3”.
On to “HAEGTFTSDVSSYLEGQAAKEFIAWLVKGRGRRDAAAAVAIAEELG [CM3-ANA03]”, for which, on DPPIV [1] (37° C.), the “in vitro plasma stability, comparison” value is reported as “strongly reduced stability compared to CM3” and the DT80 worked out at 1.6 h. For the same molecule, the fraction remaining at 9 h, 1 μM at DPPIV [1] amounted to 30%.
Take “HAEGTFTSDVSSYLEGQAAKEFIAWLVKGRGRRDFAEEVAIAEELG [CM3-ANA02]”: the share remaining at 9 h, 1 μM on DPPIV [1] was found to be 65%. The DT80 on DPPIV [1] (37° C.) was 4.5 h.
As to “HAEGTFTSDVSSYLEGQAAKEFIAWLVKGRGRRDFPEEVAIAEELG [CM3]”, in series [8], the “stability in human plasma in vitro” value is given as “significantly stabilized”. The DT80 on DPPIV [1] (37° C.) was determined as 4.4 h.
As to “HAEGTFTSDVSSYLEGQAAKEFIAWLVKGRGRRDFPEEVAIAEELGRRHAC [CM3-ANA09]”, the DT80 on DPPIV [2] is recorded as 4.2 h. The molecule also showed a share remaining at 9 h, 1 μM on DPPIV [3] of 60%.

B1: GLP-1(7-37)-IP2-RR-GLP2 (peptide)
chain: HAEGTFTSDVSSYLEGQAAKEFIAWLVKGRGRRDFPEEVAIAEELGRRHADGSFSDEMSTILDNLATRDFINWLIQTKITDKK
As to B1, the “stability in human plasma in vitro” value in series [8] is listed as “significantly stabilized”. Moreover, in series [5], the “anti-hyperglycemia effect (blood glucose in relation to day 0)” value is listed as “anti-hyperglycemia effect”.
